Experimental data from patent US20050209157A1, “Short bioactive peptides and methods for their use” (priority 2001, published 2005).
≈ marks a conversion by molar mass, not a printed value. Where “and” joins values, the source holds several entries; their conditions need not be identical. Identical values can stand only once. Like-named read-outs stand apart in the source and are kept apart here. No end group written: not given here.

Experiments:
[1] = tested on: Pseudomonas aeruginosa ATCC 9027; assay: Antimicrobial assay I, MIC by OD measurement; type: cell-based; conditions: 37° C. for 24 hours, absorbance 620 nm
[2] = tested on: Staphylococcus aureus ATCC 6538; assay: Antimicrobial assay I, MIC by OD measurement; type: cell-based; conditions: 37° C. for 24 hours, absorbance 620 nm
[3] = tested on: yeast (Saccharomyces cerevisiae); assay: Antimicrobial assay I, yeast assay in RPMI 1640; type: cell-based; conditions: RPMI 1640 media
S. aureus (MRSA) = type: cell-based, Staphylococcus aureus; conditions: for S. aureus (MRSA) MIC: mean of three, 16 to 20 hours at 35° C.; for MIC S. aureus SAP0017: Table 13, strain SAP0017, in µg/mL
S. epidermidis C621 = type: cell-based, Staphylococcus epidermidis; conditions: for S. epidermidis C621 MIC: mean of three, 16 to 20 hours at 35° C.; for MIC S. epidermis C621: Table 13, in µg/mL
S. pyogenes M76 = assay: Antimicrobial assays II, NCCLS broth microdilution MIC; type: cell-based, Streptococcus pyogenes; conditions: mean of three; 16 to 20 hours at 35° C.
S. pyogenes ATCC19615 = assay: as above; type: cell-based, Streptococcus pyogenes; conditions: mean of three, in µg/mL
S. pneumoniae C718 = assay: as above; type: cell-based, Streptococcus pneumoniae; conditions: mean of three
S. pneumoniae C719 = assay: as above; type: cell-based, Streptococcus pneumoniae; conditions: mean of three, in µg/mL
P. acne ATCC 6919 = assay: as above; type: cell-based, Propionibacterium acnes; conditions: mean of three, in µg/mL
H1299 = assay: Anti-cancer assay, MTT, LD50; type: cell-based; conditions: 24 hours with peptide, lung large cell carcinoma
Text: (§1) Numbers are LD50 values (μg/mL).

HeLaS3 = assay: Anti-cancer assay, MTT, LD50; type: cell-based; conditions: 24 hours with peptide, cervical carcinoma
Text: as §1

MCF7 = assay: Anti-cancer assay, MTT, LD50; type: cell-based; conditions: MCF7 breast adenocarcinoma line, MTT, 24 hours with peptide
Text: as §1

SW480 = assay: Anti-cancer assay, MTT, LD50; type: cell-based; conditions: SW480 colon adenocarcinoma line, 24 hours with peptide
Text: as §1

WI38 = conditions: MTT, 24 hours with peptide; normal fibroblast line
in vitro [4] = conditions: human, WI38 normal lung fibroblast cells, LD50 WI38, WI38 normal lung fibroblast line, MTT, 24 hours with peptide
in vitro [5] = type: cell-based, human; conditions: human, human red blood cells, pH 7, hemolytic assay, concentration at 50% hemolysis, 1 hour at 37° C.; read-out: LD50
P. aeruginosa H374 [6] = type: cell-based, Pseudomonas aeruginosa; conditions: for MIC Cm-comb.: MIC of chloramphenicol with peptide at ¼ MIC; for MIC Nal-comb.: MIC of nalidixic acid with peptide at ¼ MIC; for FIC Index: 0.5 or less = synergy
In short: (§2)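 Synergy against efflux-mutant strains: two-fold dilutions of nalidixic acid or chloramphenicol tested with peptide held at ¼ of its MIC.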

P. aeruginosa H774 = type: cell-based, Pseudomonas aeruginosa; conditions: P. aeruginosa H744; nalidixic acid + peptide at ¼ MIC; 0.5 or less = synergy
In short: as §2

P. aeruginosa = type: cell-based, Pseudomonas aeruginosa; conditions: P. aeruginosa H744; MIC of nalidixic acid with peptide at ¼ MIC
In short: as §2

BMKC = assay: Anti-cancer assay, MTT, LD50; type: cell-based; conditions: BMKC cloned melanoma line, 24 hours with peptide
Text: as §1

PC3 = assay: Anti-cancer assay, MTT, LD50; type: cell-based; conditions: 24 hours with peptide, prostate adenocarcinoma
Text: as §1

E. coli UB1005 = type: cell-based, Escherichia coli; conditions: Table 12
S. typhimurium 14028S = type: cell-based, Salmonella typhimurium; conditions: Table 12
P. aeruginosa H374 [7] = type: cell-based, Pseudomonas aeruginosa; conditions: in µg/mL
[8] = tested on: Pseudomonas aeruginosa H187; type: cell-based; conditions: in µg/mL
[9] = tested on: Pseudomonas aeruginosa 100609; type: cell-based; conditions: Table 9; in µg/mL
[10] = tested on: Pseudomonas aeruginosa 105663; type: cell-based; conditions: Table 9; in µg/mL
Candida albicans 105 = type: cell-based; conditions: Table 13; in µg/mL
[11] = tested on: Candida glabrata ATCC15126; assay: Antimicrobial assays II, NCCLS broth microdilution MIC; type: cell-based; conditions: Table 13; in µg/mL

Molecule	MIC S. aureus SAP0017 (S. aureus (MRSA))	MIC S. epidermis C621 (S. epidermidis C621)	MIC E. coli UB1005 (E. coli UB1005)	MIC S. typhimurium 14028S (S. typhimurium 14028S)	MIC P. aeruginosa H374 (P. aeruginosa H374 [7]; Table 9)	MIC P. aeruginosa H374 (P. aeruginosa H374 [7]; Table 12)	MIC P. aeruginosa H187 ([8]; Table 9)	MIC P. aeruginosa H187 ([8]; Table 12)	MIC P. aeruginosa Tb 100609 [9]	MIC P. aeruginosa Tb 105663 [10]	MIC C. albicans 105 (Candida albicans 105)	MIC C. glabrata ATCC15126 [11]	further results
CC[C@H](C)[C@H](NC(=O)CNC(=O)[C@H](CC(C)C)NC(=O)[C@H](CCCCN)NC(=O)[C@H](C)NC(=O)[C@H](CC(C)C)NC(=O)[C@H](C)NC(=O)[C@@H](NC(=O)[C@H](CCCCN)NC(=O)[C@H](C)NC(=O)[C@@H](NC(=O)[C@@H](N)CCCCN)[C@@H](C)CC)C(C)C)C(=O)NCC(=O)N[C@@H](C)C(=O)N[C@H](C(=O)N[C@@H](CC(C)C)C(=O)N[C@@H](CCCCN)C(=O)N[C@H](C(=O)N[C@@H](CC(C)C)C(=O)N[C@H](C(=O)N[C@H](C(=O)NCC(=O)N[C@@H](CC(C)C)C(N)=O)[C@@H](C)O)[C@@H](C)O)C(C)C)C(C)C [P105]													paerug9027 (MIC) [1]: 200 µg/mL; staph6538 (MIC) [2]: 200 µg/mL; yeast (MIC or MFC) [3]: > (> indicates greater than 200 μg/mL); S. aureus (MRSA) MIC (S. aureus (MRSA)): 32 µg/mL; S. epidermidis C621 MIC (S. epidermidis C621): 8 µg/mL; S. pyogenes M76 MIC (S. pyogenes M76): 16 µg/mL; S. pyogenes MIC (S. pyogenes ATCC19615): 16; S. pneumoniae MIC (S. pneumoniae C718): 64 µg/mL; S. pneumoniae MIC (S. pneumoniae C719): 32; P. acne MIC (P. acne ATCC 6919): 16; H1299 LD50 (H1299): > (> indicates greater than 1000); HeLaS3 LD50 (HeLaS3): > (> indicates greater than 1000); LD50 MCF7 (MCF7): 635 µg/mL; LD50 SW480 (SW480): > (> indicates greater than 1000); WI38 LD50 (WI38): 430 µg/mL; CC50 at 24 h (in vitro [4]): 430 µg/mL (≈ 189 µM)
CC(C)C[C@H](NC(=O)[C@H](C)NC(=O)[C@H](CC(C)C)NC(=O)[C@H](C)NC(=O)[C@H](CC(C)C)NC(=O)[C@H](CCCCN)NC(=O)[C@H](C)NC(=O)[C@H](CC(C)C)NC(=O)[C@H](CCCCN)NC(=O)[C@H](CCCCN)NC(=O)[C@H](C)NC(=O)[C@H](CC(C)C)NC(=O)[C@H](CCCCN)NC(=O)[C@H](C)NC(=O)[C@H](CC(C)C)NC(=O)[C@H](CCCCN)NC(=O)[C@H](CCCCN)NC(=O)[C@H](C)NC(=O)[C@@H](N)C(C)C)C(N)=O [P504]													S. aureus (MRSA) MIC (S. aureus (MRSA)): 4 µg/mL; S. epidermidis C621 MIC (S. epidermidis C621): 4 µg/mL; S. pyogenes M76 MIC (S. pyogenes M76): 8 µg/mL; S. pyogenes MIC (S. pyogenes ATCC19615): 16; S. pneumoniae MIC (S. pneumoniae C718): 64 µg/mL; S. pneumoniae MIC (S. pneumoniae C719): 8; P. acne MIC (P. acne ATCC 6919): 4; HC50 at 1 h (in vitro [5]): 70 µg/mL; MIC Cm-comb. (P. aeruginosa H374 [6]): 16 µg/mL; MIC Nal-comb. (P. aeruginosa H374 [6]): 5000 µg/mL; FIC Index (P. aeruginosa H374 [6]; chloramphenicol + peptide at ¼ MIC): 1.25; FIC Index (P. aeruginosa H374 [6]; nalidixic acid + peptide at ¼ MIC, FIC=0.25+MIC comb/MIC alone): 1.25; FIC Index (P. aeruginosa H774): 2.25; MIC Nal-comb. (P. aeruginosa): 1248 µg/mL
FAKKFAKKFKKFAKKFAKFAFAF-NH2 [P301, reference compound]													S. aureus (MRSA) MIC (S. aureus (MRSA)): 8 µg/mL; S. epidermidis C621 MIC (S. epidermidis C621): 4 µg/mL; S. pyogenes M76 MIC (S. pyogenes M76): 8 µg/mL; S. pyogenes MIC (S. pyogenes ATCC19615): 8; S. pneumoniae MIC (S. pneumoniae C718): > 128 µg/mL; S. pneumoniae MIC (S. pneumoniae C719): 8; P. acne MIC (P. acne ATCC 6919): 2; LD50 BMKC (BMKC): 140 µg/mL; H1299 LD50 (H1299): 77 µg/mL; HeLaS3 LD50 (HeLaS3): 170 µg/mL; LD50 MCF7 (MCF7): 64 µg/mL; PC3 LD50 (PC3): 45 µg/mL; LD50 SW480 (SW480): 76 µg/mL; HC50 at 1 h (in vitro [5]): 10 µg/mL; MIC Cm-comb. (P. aeruginosa H374 [6]): 16 µg/mL; MIC Nal-comb. (P. aeruginosa H374 [6]): 625 µg/mL; MIC Nal-comb. (P. aeruginosa): 624 µg/mL; WI38 LD50 (WI38): 66 µg/mL
FALALKALKKLAKKLKKLAKKAL-NH2 [P25 (10)]	16	4	8 µg/mL	8 µg/mL	8	8	8	8	8	8	32	32	
FALALKALKKLKKALKKAL-NH2 [P27 (12)]	8 and 16	4	8 µg/mL	16 µg/mL	8	8	8	8	8 and 16	8 and 16	16 and 32	16 and 32	
FALKALKKLKKALKKAL-NH2 [P153 (115)]	16	4	8 µg/mL	8 µg/mL	4	4	8	8	8	8	16	16	
FALLKALLKKAL-NH2 [P177 (138)]	8	4	8 µg/mL	16 µg/mL	16	16	16	16	32	32	16	16	
GIGKFLKKAKKFGKAFVKILKK-NH2 [P42 (24)]	16	2	4 µg/mL	8 µg/mL	4	4	8	8	8	8	32	64	
KWKLFKKKTKLFKKFAKKLAKKL-NH2 [P73 (49)]	16	4	8 µg/mL	16 µg/mL	8	8	16	16	16	16	32	128	
KYKKALKKLAKLL-NH2 [P146 (108)]	16	8	2 µg/mL	4 µg/mL	2	2	4	4	8	8	8	16	
VALALKALKKLLKKLKKLAKKAL-NH2 [P510 (161)]	8	4	8 µg/mL	16 µg/mL	8	8	8	8	16	16	32	64	
